Test: Accelerated and long-term stability tests of Crystalline Form I
Type: physicochemical
Details: for Purity: HPLC
Procedure: X-ray powder diffraction (XRPD) patterns were obtained on a Shimadzu XRD-6000. A CuK source (=1.54056 angstrom) operating minimally at 40 kV and 30 mA scans each sample between 5 and 50 degrees 2-theta. The step size is 0.02 degrees 2-theta and the scan speed is 1 second per step.
Differential scanning calorimetry analysis was carried out on a TA Instrument DSC unit (METTLER DSC 3). Samples were heated in non-hermetic aluminum pans from ambient to 300° C. at 20 K/min with a nitrogen purge of 50 mL/min.
High-performance liquid chromatography (HPLC) was performed using the following instrument and/or conditions.
Example 8. Stability Tests of Crystalline Form I
Crystalline Form I was not changed after storage at 40° C./75% RH for 6 months, or storage at 25° C./60% RH for 6 months.

[1] = 25° C./60% RH (closed), 0 month
[2] = 25° C./60% RH (closed), 6 months
[3] = 40° C./75% RH (closed), 0 month
[4] = 40° C./75% RH (closed), 6 months

- Appearance [1]: Yellow powder
- DSC [1]: 186.56 °C
- XRPD [1]: Form I
- Purity [1]: 99.93%
- Appearance [2]: Yellow powder
- DSC [2]: 186.08 °C
- XRPD [2]: Form I
- Purity [2]: 99.92%
- Appearance [3]: Yellow powder
- DSC [3]: 186.56 °C
- XRPD [3]: Form I
- Purity [3]: 99.93%
- Appearance [4]: Yellow powder
- DSC [4]: 186.54 °C
- XRPD [4]: Form I
- Purity [4]: 99.92%
- Change of crystalline form after storage (storage at 25° C./60% RH for 6 months): not changed
- Change of crystalline form after storage (storage at 40° C./75% RH for 6 months): not changed
SMILES: CCCS(=O)(=O)Nc1cc(F)c(F)c(C(=O)c2ccc3ncc(N4CCOCC4)nc3c2)c1F [Crystalline Form I, N-(2,4,5-trifluoro-3-(3-morpholinoquinoxaline-6-carbonyl)phenyl)propane-1-sulfonamide]
